# In BindingDB's records for PubMed 35973549 (Pharmaxis, 2022):
# Assay: Inhibition of recombinant human SSAO
row,IC50 [nM],SMILES
1,6,NCC(=CF)COc1ccccc1
2,19,NC/C(=C\F)COc1ccccc1
3,288,Cc1ccccc1OC/C(=C/F)CN
